Usually Ki stands for a dissociation constant, usually derived from enzyme kinetics or from competition with a known ligand.

Drawing on ChEMBL document CHEMBL1146926, “Fluorescent non-imidazole histamine H3 receptor ligands with nanomolar affinities” (Bioorg Med Chem Lett, 2006), this text covers Ki for six molecules.

The target of this assay is Histamine H3 receptor (Homo sapiens, UniProt Q9Y5N1). Nature of the assay: Displacement of [125I]iodoproxyfan from human histamine H3 receptor expressed in CHOK1 cells. The assay is classed as cell-based, CHO-K1. (Loss of bound radioactivity is the signal in a displacement assay; it reports binding, not function.)
Sequence of Histamine H3 receptor (Q9Y5N1 whole entry): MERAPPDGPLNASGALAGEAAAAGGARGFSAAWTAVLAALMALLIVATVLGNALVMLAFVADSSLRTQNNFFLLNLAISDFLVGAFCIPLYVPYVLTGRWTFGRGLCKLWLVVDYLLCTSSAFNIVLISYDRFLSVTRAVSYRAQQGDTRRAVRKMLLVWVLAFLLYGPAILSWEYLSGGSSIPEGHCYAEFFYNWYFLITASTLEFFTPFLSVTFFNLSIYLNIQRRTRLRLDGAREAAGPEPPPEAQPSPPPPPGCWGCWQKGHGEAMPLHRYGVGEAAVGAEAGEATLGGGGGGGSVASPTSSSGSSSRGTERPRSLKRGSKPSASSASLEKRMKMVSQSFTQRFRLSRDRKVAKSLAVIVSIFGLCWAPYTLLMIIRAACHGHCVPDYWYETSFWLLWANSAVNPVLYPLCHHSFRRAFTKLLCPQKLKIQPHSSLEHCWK
`N#Cc1c2ccccc2cn1CCCCCN1CCCCC1` showed a Ki of 31 nM.
With `N#Cc1c2ccccc2cn1CCCCCCN1CCCCC1` the figure was 31 nM.
With `O=[N+]([O-])c1ccc(NCCCCCN2CCCCC2)c2nonc12` the figure was 11 nM; with `N#Cc1c2ccccc2cn1CCCCN1CCCCC1`, 178 nM; with `N#Cc1c2ccccc2cn1CCCN1CCCCC1`, 351 nM.
As to `O=[N+]([O-])c1ccc(NCCCCN2CCCCC2)c2nonc12`, the Ki came to 170 nM.
